In patent publication EP3539964A1, “BASE ACETAMIDE GLYCERIN ETHER MOLECULE, CHEMICAL SYNTHESIS METHOD THEREFOR, AND APPLICATIONS THEREOF IN FIELD OF GENE THERAPY” (Peking University, priority 2016, dated 2018):

Columns and labels:
[1] = Particle size and morphology of liposomes by electron microscopy; type: physicochemical; conditions: liposome/nanoparticles self-assembled in water, electron microscopy (Fig. 5)
Procedure: The base-acetamide glycerin ether molecule has an amphiphilic structure and can be prepared into a supramolecular structure such as a liposome. Taking DNTA as an example, the preparation method of liposome is as follows: DNTA (1.18 mg, 1.56 µmol) is dissolved in methanol (1 mL), vortexed to fully dissolve, after centrifugation, DNTA methanol solution (12.8 µL) is measured out and adding to a 200 µL centrifuge tube, added with PBS (100 µL), vortexed (10 s) to mix well. The solution was placed in a PCR program for annealing. Procedure: Heating at 95°C for 10 minutes, cool down 5°C every 5 minutes until 15°C, then store at 4°C. After annealing was completed, the centrifuge tube was incubated at 40°C for 30 min for the complete evaporation of methanol to obtain the liposome solution.
Under transmission electron microscope (TEM), it can be seen that the neutral base lipid carrier molecules DNCA and DNTA can form stable and uniform nanoparticles in aqueous solution. The size of the DNTA molecules assembled in water is around 150 nm. The size of the liposome formed by self-assembly of DNCA carrier molecules in water is around 180 nm (Fig. 5).

[2] = Cytotoxicity using CCK-8 kit; type: cell-based; conditions: for viability at 72 h, 60 µM: 72 hours after addition, concentration of 60 µM, read-out: cell survival rate; for cytotoxicity: CCK-8 kit (Fig. 6)
Procedure: When base acetamide glycerin ether molecules should is to be used as novel biomaterials in the field of gene therapy, they must have good biocompatibility. Two base acetamide glycerin ether compounds (DOCA and DOTA) were studied for cytotoxicity using CCK-8 kit. […] After 72 hours of addition of the base acetamide glycerin ether compound at a concentration of 60 µM, the cell survival rate was close to 100%, indicating good biocompatibility (Fig. 6).

Hela cells = test: Transfection of FAM-labeled polyA/G, fluorescence intensity by flow cytometry; type: cell-based; conditions: liposomes mixed with FAM-polyA at base ratio 5/1, 100 nM FAM-polyA, 4 hours, Hela cells (Fig. 7)
Source text: Taking DNTA and DNCA as examples, FAM-labeled polyA/G was used as a template to study the nucleic acid transfection abilities of thymine base acetamide glycerin ethers. The specific coating and transfection process is as follows: DNTA or DNCA liposomes were formulated as mixed solutions with FAM-polyA or FAM-polyG at a base ratios of 5/1. […] The DNA-free and DNA-only wells were used as two negative controls, and the transfection reagent Lipofectamine 2000-DNA complex (the method of addition of transfection reagent and DNA group according to the protocol) was added as a positive control; • (3) Washing three times with 500 µL PBS; • (4) After 4 hours, the liquids in the culture wells were aspirated, after adding 250 µL of 5% trypsin each, they were placed in 1.5 mL EP tubes, the cells were fixed with 4% paraformaldehyde for 15 min; • (5) Centrifuging, discarding the supernatant, adding 400 µL PBS in each tube; • (6) Fluorescence intensity was measured by using flow cytometry;

MCF-7 cells = test: Antisense nucleic acid (Cenersen) uptake; type: cell-based; conditions: liposomes, compared with blank group and DOCA/DOTA liposome groups (Fig. 8)
Procedure: The cells used in the transfection experiments were Hela cells. • (1) Plating: 300,000 cells were added to the six-well plate, and the volume per well was 1.8 mL; • (2) After 18-24 h, the samples were diluted in an appropriate amount of opti-MEM, blowing and suction with a pipette to mix well, 20 µL of the mixed […] The DNA-free and DNA-only wells were used as two negative controls, and the transfection reagent Lipofectamine 2000-DNA complex (the method of addition of transfection reagent and DNA group according to the protocol) was added as a positive control; • (3) Washing three times with 500 µL PBS; • (4) After 4 hours, the liquids in the culture wells were aspirated, after adding 250 µL of 5% trypsin each, they were placed in 1.5 mL EP tubes, the cells were fixed with 4% paraformaldehyde for 15 min; • (5) Centrifuging, discarding the supernatant, adding 400 µL PBS in each tube; • (6) Fluorescence intensity was measured by using flow cytometry;
The procedure was the same as the transfection experiments of DNCA- and DNTA-packed PolyG/PolyA (using DOCA and DOTA as controls), the cell line was selected from MCF-7 cell line.

With `CCCCCCCC/C=C\CCCCCCCCOCC(CNC(=O)Cn1ccc(N)nc1=O)OCCCCCCCC/C=C\CCCCCCCC` (stereo not shown) [DNCA, 1,2,-bis(oleyl)-glycero-3-amine-(cytosin-1-yl)-acetyl ester] the size [1] was “around 180 nm”, the viability at 72 h, 60 µM [2] was ~100% and the cytotoxicity [2] was “no obvious cytotoxicity”. The “transfection of FAM-polyA into cells” value (Hela cells) was “can successfully transport FAM-polyA into cells” and the “uptake of antisense nucleic acid” value (MCF-7 cells) was “could significantly increase the uptake ability of MCF-7 cells”.

In the case of `CCCCCCCC/C=C\CCCCCCCCOCC(CNC(=O)Cn1cc(C)c(=O)[nH]c1=O)OCCCCCCCC/C=C\CCCCCCCC` (stereo not shown) [DNTA, 1,2,-bis(oleyl)-glycero-3-amine-(thymidine-1-yl)-acetyl ester], the size [1] is reported as “around 150 nm”, the viability at 72 h, 60 µM [2] is reported as ~100% and the cytotoxicity [2] is reported as “no obvious cytotoxicity”. The “transfection of FAM-polyA into cells” value (Hela cells) was “can successfully transport FAM-polyA into cells” and the “uptake of antisense nucleic acid” value (MCF-7 cells) was “could significantly increase the uptake ability of MCF-7 cells”.
